Experimental data taken from US6271416A, “Quinolinone derivative, method for preparing the same, and anti-allergic agent” (Dainippon Ink and Chemicals, Inc., priority 1997, dated 2001).

System: homologous passive cutaneous anaphylaxis (PCA) reaction
Assay: Effect on homologous passive cutaneous anaphylaxis (PCA) reaction in rats
Type: in vivo, rat (male wistar)
Conditions: Rattus norvegicus, 1 hour before induction; for inhibition in vivo at 100 mg/kg: test compounds, 100 mg/kg oral
Procedure: Effect on homologous passive cutaneous anaphylaxis (PCA) reaction in rats
This experimental animal model is caused by immediate type allergic reaction, namely, antigen-antibody reaction. In the following, the method of this pharmacological test will be explained.
Method: Male wistar rats (9 weeks old) were intradermally administered 0.05 ml of anti-serum against dinitrophenylated ascaris (DNP-As) into two sites on the shaved dorsal skin. 48 hours later, quinolinone derivatives (test compounds) suspended in 0.5% methylcellulose (MC) were given orally at a dose of 100 mg/kg to the animals. 1 hour after administration of Test compounds, the animals were induced anaphylaxis by injection of saline (1 ml) dissolving 1 mg of trinitrophenylated ascaris (TNP-As) and 5 mg of Evans Blue into the tail vein of the animals. 30 minutes after induction of anaphylaxis, animals were anesthetized by ether and killed by bleeding, and were flayed dorsal skin. The leakage of dye was assessed by measuring the diameter (mean of shortest and longest diameter) of the blue spot on the inside surface of dorsal skin. As vehicle control group, only 0.5% MC solution was administered orally, and as positive control group, Tranilast suspended in 0.5% MC were administered orally at a dose of 200 mg/kg to the animals with the same method as the test compounds groups. Each experimental group consisted of 5 rats. In the conditions of this experinent, it was considered that the compound, which inhibited PCA reaction by over forty (40) percent against that in vehicle control group, was evidently effective for immediate type allergy.
Inhibition (%)=(A-B)/A×100 (Equation 1)
A: leakage of dye in vehicle control group
B: leakage of dye in test compound group or positive control group

Row | Structure (SMILES) | inhibition in vivo at 100 mg/kg | inhibition in vivo at 200 mg/kg (positive control, 200 mg/kg oral)
1 | CCOc1c(O)c2c(N)cccc2n(C)c1=O [Compound 23, 5-amino-3-ethoxy-4-hydroxy-1-methyl-2(1H)-quinolinone] | 40% | 
2 | Cn1c(=O)c(Oc2ccccc2)c(O)c2cc(N)ccc21 [Compound 24, 6-amino-3-phenoxy-4-hydroxy-1-methyl-2(1H)-quinolinone] | 42% | 
3 | CC(=O)Nc1ccc2c(c1)c(O)c(Oc1ccccc1)c(=O)n2C [Compound 26, 6-acetylamino-3-phenoxy-4-hydroxy-1-methyl-2(1H)-quinolinone] | 39% | 
4 | CCCCCCCCn1c(=O)c(Oc2ccccc2)c(O)c2cc(-c3ccccc3)ccc21 [Compound 34, 6-phenyl-3-phenoxy-4-hydroxy-1-octyl-2(1H)-quinolinone] | 37% | 
5 | COc1c(O)c2c(O)cc(O)cc2n(C)c1=O [Compound 36, 5,7-dihydroxy-3-methoxy-4-hydroxy-1-methyl-2(1H)-quinolinone] | 45% | 
6 | CCCCOc1c(O)c2c(C(=O)OCC)cccc2n(C)c1=O [Compound 38, 5-ethoxycarbonyl-3-butoxy-4-hydroxy-1-methyl-2(1H)-quinolinone] | 45% | 
7 | CCOc1c(O)c2c(N)cccc2n(C/C=C(\C)CCC=C(C)C)c1=O [Compound 44, 5-amino-3-ethoxy-4-hydroxy-1-geranyl-2(1H)-quinolinone] | 42% | 
8 | CC(C)=CCC/C(C)=C/COc1c(O)c2cccc(N)c2n(C)c1=O [Compound 45, 8-amino-3-geranyloxy-4-hydroxy-1-methyl-2(1H)-quinolinone] | 46% | 
9 | CCCCCCCCCCNc1ccc2c(c1)c(O)c(OC)c(=O)n2C [Compound 49, 6-decylamino-3-methoxy-4-hydroxy-1-methyl-2(1H)-quinolinone] | 50% | 
10 | COc1c(O)c2cc(NC/C=C(\C)CCC=C(C)C)ccc2n(C)c1=O [Compound 52, 6-geranylamino-3-methoxy-4-hydroxy-1-methyl-2(1H)-quinolinone] | 49% | 
11 | CCCCNc1cccc2c(O)c(OC/C=C(\C)CCC=C(C)C)c(=O)n(C)c12 [Compound 53, 8-butylamino-3-geranyloxy-4-hydroxy-1-methyl-2(1H)-quinolinone] | 45% | 
12 | CCCCCCCCCCOc1ccc2c(c1)c(O)c(OC)c(=O)n2C [Compound 54, 6-decyloxy-3-methoxy-4-hydroxy-1-methyl-2(1H)-quinolinone] | 50% | 
13 | COc1c(O)c2cc(C/C=C(\C)CCC=C(C)C)ccc2n(C)c1=O [Compound 61, 6-geranyl-3-methoxy-4-hydroxy-1-methyl-2(1H)-quinolinone] | 42% | 
14 | CCCCCCCCCCOC(=O)c1cccc2c1c(O)c(OCCCC)c(=O)n2C [Compound 68, 5-decyloxycarbonyl-3-butoxy-4-hydroxy-1-methyl-2(1H)-quinolinone] | 49% | 
15 | CCCCCCCCOc1c(O)c2ccc(NC(C)=O)cc2n(C)c1=O [Compound 76, 7-acetylamino-3-octyloxy-4-hydroxy-1-methyl-2(1H)-quinolinone] | 51% | 
16 | CCCCCCCCOc1c(O)c2c(NC(=O)/C=C/c3cc(OC)c(O)c(OC)c3)cccc2n(C)c1=O [Compound 77, 5-[(3,5-dimethoxy-4-hydroxycinnamoyl)amino]-3-octyloxy-4-hydroxy-1-methyl-2(1H)-quinolinone] | 55% | 
17 | CCCCCCCCOc1c(O)c2cc(NC(=O)/C=C/c3cc(OC)c(O)c(OC)c3)ccc2n(C)c1=O [Compound 78, 6-[(3,5-dimethoxy-4-hydroxycinnamoyl)amino]-3-octyloxy-4-hydroxy-1-methyl-2(1H)-quinolinone] | 50% | 
18 | CCCCCCCCOc1c(O)c2cccc(NC(=O)/C=C/c3cc(OC)c(O)c(OC)c3)c2n(C)c1=O [Compound 79, 8-[(3,5-dimethoxy-4-hydroxycinnamoyl)amino]-3-octyloxy-4-hydroxy-1-methyl-2(1H)-quinolinone] | 49% | 
19 | CCCCOc1c(O)c2cc(C(=O)OCC)ccc2n(C)c1=O [Compound 80, 6-ethoxycarbonyl-3-butoxy-4-hydroxy-1-methyl-2(1H)-quinolinone] | 41% | 
20 | CCCCOc1c(O)c2cccc(C(=O)Oc3ccccc3)c2n(C)c1=O [Compound 83, 8-phenoxycarbonyl-3-butoxy-4-hydroxy-1-methyl-2(1H)-quinolinone] | 42% | 
21 | CCCCCCCCOc1cccc2c1c(O)c(OC)c(=O)n2C [Compound 84, 5-octyloxy-3-methoxy-4-hydroxy-1-methyl-2(1H)-quinolinone] | 49% | 
22 | CCCCCCOc1c(O)c2cccc(OCCCCCC)c2n(C)c1=O [Compound 85, 3,8-dihexyloxy-4-hydroxy-1-methyl-2(1H)-quinolinone] | 50% | 
23 | CCCCCCCCOc1c(O)c2cccc(NC)c2n(C)c1=O [Compound 86, 8-methylamino-3-octyloxy-4-hydroxy-1-methyl-2(1H)-quinolinone] | 53% | 
24 | COc1ccc(/C=C/C(=O)Nc2ccccc2C(=O)O)cc1OC [Tranilast, reference compound] |  | 52%
